Values belong to the molecule of their own block, whether it stands above or below them.
Legend:
[1] = target: sphingosin-1 phosphate (S1P) receptor 2 (S1PR2) (human) (UniProt O95136); assay: cell-based or functional assay
[2] = test system: GBM MVEC; assay: Mean traction forces of adhered cells on nanopillars coated with Nogo-A proteins; format: cell-based, human
Procedure: (§1) For time-lapse- and force generation experiments, Vybrant/Dil (Invitrogen, 1:200)-labeled GBM MVEC (10^4 cells ml^−1) were added onto the nanopillar structures. The imaging process was started 1 h after seeding GBM MVEC on nanopillars. To calculate the traction force exerted by GBM MVEC on the nanopillar surface, the deflection of the nanopillar tip was imaged with confocal microscopy using a Leica confocal microscope SP5 with a63x, oil immersion, NA1.43 objective.
(§2) During image acquisition, GBM MVEC were kept at 37° C. and 10% CO2. Following laser wavelengths were used to acquire images of nanopillar arrays and Di-labeled cells: 488 nm (nanopillar structures) and 546 nm (Dil).
To quantitatively address the effects of coated Nogo-A proteins on adhesion between endothelial cells (GBM MVEC) and nanopillars, nanopillars were coated with Nogo-A Delta 20, Nogo-A Delta 21, or Fibronectin (blank condition).
To calculate the total force applied by endothelial cells (GBM MVEC) on the substrates, the average displacement of 800-5000 nanopillars per single cell was used. Single GBM MVEC were imaged for a total time of 20 min, with a scanning ratio of 30 s per frame. For each condition, at least three individual GBM MVEC were analyzed.
To address the role of Nogo-A receptors, endothelial cells were pre-incubated for 30 min before seeding with the pharmacological blocker of S1PR2 (JTE-013, 10 μM) (Tocris Bioscience), with the pharmacological blocker of S1PR1 and S1PR3 (VPC 23019, 10 μM) (Tocris Bioscience), or with the pharmacological blocker of S1PR1, 3, 4, and 5 (FTY720, 10 μM) (Tocris Bioscience).
(§3) To quantitatively address the acute effects of soluble Nogo-A proteins on GBM MVEC retraction, Dil-labeled endothelial cells on nanopillars coated with 25 μg*ml^−1 human Fibronectin were treated 30 min after cell seeding with soluble Nogo-A Delta 20 and Nogo-A Delta 21 at 1 μM. Single GBM MVEC were then imaged for a total time of 1.5 h, with a scanning ratio of 30 s per frame. The nanopillar displacements were recorded as sequence images when the GBM MVEC applied forces on the nanopillar surface. For each condition, at least three individual GBM MVEC were analyzed. To address the role of Nogo-A receptors, endothelial cells were cultured for 30 min before incubating the cells for another 30 min with the pharmacological blocker of S1PR2 (JTE-013, 10 μM) (Tocris Bioscience), with the pharmacological blocker of S1PR1 and S1PR3 (VPC 23019, 10 μM) (Tocris Bioscience), or with the pharmacological blocker of S1PR1, 3, 4, and 5 (FTY720, 10 μM) (Tocris Bioscience). Then soluble Nogo-A Delta 20 (at 1 μM) or Nogo-A Delta 21 (at 1 μM) was added and lamellipodia and filopodia were imaged for 1h. The displacements (x) of the nanopillar tips induced by whole endothelial cells (for experiments with coated Nogo-A proteins) or by single endothelial filopodia (for experiments with soluble Nogo-A proteins) were measured using the program Diatrack (Powerful Particle Tracking, Semasopht). Finally, corresponding traction forces were calculated using the formula F=k*x, where k represents the spring constant of the nanopillars, 78.76 nN/μm.

[3] = test system: GBM MVEC; assay: Time-lapse imaging of lamellipodia and filopodia retraction on nanopillars, soluble Nogo-A proteins; format: cell-based, human
Procedure: as §1, §2
To quantitatively address the acute effects of soluble Nogo-A proteins on GBM MVEC retraction, Dil-labeled endothelial cells on nanopillars coated with 25 μg*ml^−1 human Fibronectin were treated 30 min after cell seeding with soluble Nogo-A Delta 20 and Nogo-A Delta 21 at 1 μM. Single GBM MVEC were then imaged for a total time of 1.5 h, with a scanning ratio of 30 s per frame. The nanopillar displacements were recorded as sequence images when the GBM MVEC applied forces on the nanopillar surface. For each condition, at least three individual GBM MVEC were analyzed. […] Finally, corresponding traction forces were calculated using the formula F=k*x, where k represents the spring constant of the nanopillars, 78.76 nN/μm.

[4] = test system: GBM MVECs; assay: Transwell migration assay (VEGF-A + fibronectin induced); format: cell-based, human; conditions: for migration potential despite Nogo-A Delta 20 exposure, blocker alone: pre-incubation with blocker 10 μM; for VEGF+FN-induced migration: protein coated on the underside of the insert, different concentrations
Procedure: For the migration assays, the undersides of 24-well plate inserts (FluoroBlock, BD Falcon) were coated with 0.5 ml PBS containing 10 μg*ml^−1 fibronectin (recombinant human fibronectin, Biopur AG) and different concentrations of Nogo-A Delta 21, Nogo-A Delta 20 and Nogo-66 (R&D Systems) and incubated for 1 h at 37° C. Endothelial cells (GBM MVECs) were starved in migration medium (DMEM+0.25% BSA) 4 h before detachment with accutase (PAA Laboratories). Cells were resuspended in migration medium (1 Mio ml^−1) and labeled with calcein AM (Molecular Probes, 4 μg ml^−1), followed by washing with HBSS and resuspending in migration medium (125,000 cells ml^−1). The coated inserts were washed and the bottom chamber was prepared by adding migration medium with or without human VEGF-A (PeproTech Inc., 10 ng ml^−1). The inserts were then put in an empty 24-well plate (BD Falcon) and calcein AM-labeled endothelial cells (50,000 cells per insert) were added.
The loaded inserts were transferred to the prepared cluster plate and incubated at 37° C., 5% CO2 for 4 h. A cell titration plate was prepared by adding different cell numbers (50,000/25,000/12,500/6,250/3,125/1,563/782 cells per well) in triplicates in 1.2 ml migration medium and incubated in parallel. The fluorescence was measured after 4 h by a cytofluorometer (Tean Infinite Pro 200) and the number of migrated cells was calculated based on the titration curve.
To ask how co-signaling of Nogo-A Delta 20/Nogo-66 coated to the underside of transwell inserts and of its receptors affect cell migration, calcein-AM labeled GBM MVECs were incubated for 1 h with the pharmacological blockers of-the Nogo-A Delta 20 receptor S1PR2 (JTE-013, 1 μM, 10 μM), with the pharmacological blocker of S1PR1 and S1PR3 (VPC 23019, 10 μM) (Tocris Bioscience), and with the competitive inhibitor of the Nogo-66 receptor NgR1 (NEP1-40, 4.6 μg/ml) during calcein-AM labeling. After washing, the cell medium was again supplied with these pharmacological blockers, prior to cell addition in the upper chamber of the transwell insert.

[5] = test system: GBM MVEC filopodia; assay: Peak traction forces of filopodia on nanopillars, soluble Nogo-A proteins; format: cell-based, human
Procedure: as §1, §2, §3

[6] = target: S1PR2 (Homo sapiens, UniProt O95136); conditions: cited from earlier work
S1PR2, sequence (O95136 whole entry): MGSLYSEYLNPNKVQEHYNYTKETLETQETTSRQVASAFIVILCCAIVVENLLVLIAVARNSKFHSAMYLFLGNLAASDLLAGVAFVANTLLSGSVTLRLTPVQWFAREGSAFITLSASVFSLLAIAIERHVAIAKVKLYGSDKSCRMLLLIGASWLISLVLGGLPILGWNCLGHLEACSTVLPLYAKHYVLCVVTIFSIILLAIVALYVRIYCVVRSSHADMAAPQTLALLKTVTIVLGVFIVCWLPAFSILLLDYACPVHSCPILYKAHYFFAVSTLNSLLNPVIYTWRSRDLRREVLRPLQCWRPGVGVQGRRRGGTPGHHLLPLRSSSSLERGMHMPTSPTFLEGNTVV

[7] = test system: other S1P receptors; conditions: cited from earlier work
[8] = test system: VEGFR2; assay: VEGFR2 phosphorylation at Tyr1175 and total VEGFR2 in HUVECs, western blot; format: cell-based; conditions: 15 min, protein 1 μM
Procedure: (§4) For the different treatment conditions HUVECs were seeded on 8 well dishes (LabTek chamber slides, immunofluorescence) or 6 well dishes (western blot) and left for 2 to 3 days until the culture was confluent. After a 4 h starvation of the cells in EBM-2 medium (Lonza, Switzerland), the cells were treated with Nogo-A Delta 20 (1 μM), Nogo-A Delta 20 (1 μM) and VEGF-A ([…]), Nogo-A Delta 21 (1 μM), Nogo-A Delta 21 (1 μM) and VEGF ([…]), or VEGF-A alone ([…]) in EBM-2 medium, respectively. The cells were either fixed in 4% formaldehyde for 15 min at room temperature or lysed in RIPA buffer. After fixation, HUVECs were stained with anti-phosphoVEGFR2 antibody (pTyr1175, #2478, Cell Signaling), F-actin (phalloidin Alexa Fluor 633, Molecular Probes) and DAPI. The same antibodies were used to detect VEGFR2 and phosphoVEGFR2 in western blot.

[9] = test system: VEGFR2; assay: VEGFR2 phosphorylation at Tyr1175 in HUVECs, immunofluorescent antibody staining; format: cell-based; conditions: protein 1 μM
Procedure: as §4

[10] = test system: endothelial tip cells within the glioblastoma; assay: Injection by osmotic minipumps in a mouse model of glioblastoma, endothelial tip cell count; format: in vivo; conditions: 20 days post-injection, versus scrambled Nogo-A Delta 20
Excerpt: Coronal brain sections (40 μm) of glioblastoma-bearing mice (20 days post-injection, 20D-PI) were perfused with FITC Lectin (green) to visualize perfused blood vessels and stained for Endomucin to visualize blood vessels including endothelial tip cells (red) and the general nuclear marker DAPI (blue). The boxed areas are enlarged in d-f and in g-i. (a-f). Endomucin^+ endothelial tip cells (red, arrows) and FITC Lectin^+ established blood vessel (green) (d-f) are shown within the glioblastoma. Endomucin seems to be specific for blood vessels within the glioblastoma (red) (as compared to Endomucin^− blood vessels in the surrounding normal brain; green). (d,f,g,i) Note the nicely visualized Endomucin^+ endothelial tip cells including filopodial protrusions (red, arrows) (g) within the glioblastoma. (j) Injection of Nogo-A Delta 20 decreases the mean number of endothelial tip cells within the glioblastoma, showing its inhibitory effect on mouse glioblastoma blood vessels.
GL261 glioma cell implantation into adult (two months old) C57BL/6 animals was performed as previously described (Aulwurm et al., Int J Cancer 2006;118, 1728-1735; Biollaz et al., Eur J Immunol 2009;39, 1323-1333j). Briefly, a total of 2×10^4 GL261 cells were inoculated through a borehole placed 1 mm lateral and 2 mm dorsal to the bregma at 3 mm depth using a Hamilton syringe. […]

[11] = pre-incubation with blocker 10 μM, Nogo-A Delta 20-coated nanopillars
[12] = pre-incubation with blocker 10 μM, Nogo-A Delta 20 1 μM

sphingosin-1 phosphate (S1P) receptor 2 (S1PR2) (human), sequence (O95136 whole entry): as above

mean traction forces of GBM MVECs on Nogo-A Delta 20-coated nanopillars [1]: 12 nN | peak traction forces of GBM MVEC filopodia on nanopillars, soluble Nogo-A Delta 20 at 1 µM [1]: 10 nN
Molecule: Nogo-A Delta 20 (ligand)

Molecule: Cc1nn(C)c2nc(NNC(=O)Nc3cc(Cl)nc(Cl)c3)cc(C(C)C)c12 [JTE-013]
mean traction forces induced by Nogo-A Delta 20 coating after blocker [2, 11]: ~4.1 nN | effect of blocker on soluble Nogo-A Delta 20-induced retraction of lamellipodia and filopodia [3, 12]: counterbalanced | migration potential despite Nogo-A Delta 20 exposure, blocker alone [4]: significantly increases | average peak traction forces of Nogo-A Delta 20 treated filopodia after blocker [5, 12]: ~4.5 nN

Molecule: NEP1-40: competitive antagonist of Nogo-66, inhibitor of the Nogo-66 receptor NgR1 (RIYKGVIQAIQKSDEGHPFRAYLESEVAISEELVQKYSNS; UniProt Q9NQC3 1055-1094, looked up, fragment)
migration potential upon exposure to Nogo-66 coating ([4]; pre-incubation with NEP1-40): significantly increases

Molecule: Cc1cc(C(=O)Cn2cc(C#N)ccc2=O)c(C)n1Cc1ccccc1 [CYM-5520]
selectivity for S1PR2 [6]: highly selective | activation of other S1P receptors [7]: do not activate

Molecule: CCCCCCCCc1ccc(CCC(N)(CO)CO)cc1 [FTY720]
effect of blocker on mean traction forces induced by Nogo-A Delta 20 coating [2, 11]: did not decrease | effect of blocker on average peak traction forces of Nogo-A Delta 20 treated filopodia [5, 12]: did also decrease

Molecule: CCCCCCCCc1cccc(NC(=O)[C@H](N)COP(=O)(O)O)c1 [VPC 23019]
effect of blocker on mean traction forces induced by Nogo-A Delta 20 coating [2, 11]: did not decrease | inhibitor effect of Nogo-A Delta 20 on migration, combined blockers ([4]; combined pre-incubation of VPC 23019 with JTE-013): strong reduction of the inhibitor effect | migration potential despite Nogo-A Delta 20 exposure, blocker alone [4]: no effect on its own | effect of blocker on average peak traction forces of Nogo-A Delta 20 treated filopodia [5, 12]: did also decrease

Molecule: Cc1ccc(Sc2ccc(C3SCCS3)cc2[N+](=O)[O-])cc1 [XAX-162]
selectivity for S1PR2 [6]: highly selective | activation of other S1P receptors [7]: do not activate

B1: Nogo-A Delta 20: Nogo-A specific inhibitory domain, 182 aa; human aa 567-748 (SEQ ID NO 002), rat aa 544-725 (SEQ ID NO 001) (protein, UniProt Q9NQC3 567-748, looked up, fragment)
chain: TGTKIAYETKMDLVQTSEVMQESLYPAAQLCPSFEESEATPSPVLPDIVMEAPLNSAVPSAGASVIQPSSSPLEASSVNYESIKHEPENPPPYEEAMSVSLKKVSGIKEEIKEPENINAALQETEAPYISIACDLIKETKLSAEPAPDFSDYSEMAKVEQPVPDHSELVEDSSPDSEPVDLF
mean traction forces and pillar displacements induced by adhered cells (change) ([2]; protein coated on nanopillars): reduced | mean traction forces on the underlying nanopillars ([2]; protein coated on nanopillars): ~12 nN | retraction of GBM MVEC lamellipodia and filopodia ([3]; soluble protein 1 μM, over 30 min to 1 h): retraction | VEGF+FN-induced migration [4]: dose-dependently inhibited | amount of phosphoVEGFR2 protein ([8]; with VEGF-A): reduced | total amount of VEGFR2 protein ([8]; with VEGF-A): reduced | VEGFR2 phosphorylation, protein alone ([8]; without VEGF-A): did not induce | phosphoVEGFR2 after 30 min ([9]; with VEGF-A for 30 min): no phosphoVEGFR2 was detectable | VEGFR2 phosphorylation at Tyr1175 compared to Nogo-A Delta 21 conditions ([9]; with VEGF-A, peak after 15 min): considerably lower | peak traction forces of filopodia on the underlying nanopillars ([5]; soluble protein 1 μM): ~10 nN | mean number of endothelial tip cells within the glioblastoma [10]: decreases

B2: Nogo-66: inhibitory domain of Nogo, 66 aa; human aa 1055-1120 (SEQ ID NO 004), rat aa 1026-1091 (SEQ ID NO 003) (protein)
chain: RIYKGVIQAIQKSDEGHPFRAYLESEVAISEELVQKYSNSALGHVNCTIKELRRLFLVDDLVDSLK
VEGF+FN-induced migration [4]: dose-dependently inhibited

Source: patent publication US20180015144A1, “AGONISTS OF THE NOGO-A S1PR PATHWAY FOR THE TREATMENT OF GLIOBLASTOMA” (UNIVERSITAT ZURICH, priority 2015, published 2018)
